According to PMC7415757, “Monocrotaline-induced liver toxicity in rat predicted by a combined in vitro physiologically based kinetic modeling approach” (Archives of Toxicology, 2020):
Like-named read-outs stand apart in the source and are kept apart here.

How the values were obtained:
[1] = design: method as in Estep et al. 1991; settings: rat, iv 60 mg/kg bw, ref Estep et al. 1991, cited from earlier work
[2] = design: method as in IARC [2019]; settings: possibly carcinogenic in humans; ref IARC [2019]; cited from earlier work
primary rat hepatocytes [3] = assay: WST-1 cytotoxicity assay with primary rat hepatocytes; type: cell-based, rat (Sprague–Dawley)
Protocol: The monocrotaline-induced liver toxicity was tested in vitro using the WST-1 assay which measures the formazan formation by the metabolically active cells from WST-1. Pooled cryopreserved plateable male rat (Sprague–Dawley) hepatocytes (RTCP10™) were thawed and seeded in accordance with the manufacturer’s protocol. Briefly, cells were seeded in 96-well plates (Greiner bio-one, Alphen aan den Rijn, The Netherlands) at a concentration of 5 × 10^5 cells/ml to give 1.25 × 10^4 cells/well and incubated at 37 °C, 5% CO2 in a humidified atmosphere for 6 h to allow cell adherence. […] The solvent DMSO (0.5% (v/v) final concentration in exposure medium) was used as a negative control and triton X (final concentration 1% (v/v) in exposure medium) served as a positive control in all cytotoxicity assays. After exposure for 24 h, 5 μl (1:20 dilution) WST-1 reagent was added to each well and plates were incubated for an additional 1 h. Then, the plate was shaken at 1000 rpm for 1 min, and absorbance was measured at 440 nm (background absorbance at 620 nm was subtracted) using a SpectraMax M2 (Molecular Devices, Sunnyvale, USA).
Data are presented as mean values ± SE from three independent experiments with three different batches of rat hepatocytes. The cell viability was expressed as percentage of the solvent control, with the solvent control set at 100%. The obtained concentration–response curves for hepatotoxicity were fitted with a symmetrical sigmoidal model (Hill slope) which was further used to derive IC50 values using log [inhibitor] vs. normalized response using GraphPad Prism software (version 5.00 for Windows, GraphPad software, San Diego, USA).

primary rat hepatocytes [4] = assay: Uptake of monocrotaline into primary rat hepatocytes (Tu et al. 2013); type: cell-based; settings: scaled with 120 mg protein/g liver and 34 g liver/kg bw from Tu et al. ([2013])
primary rat hepatocytes [5] = tested on: primary rat hepatocytes; design: method as in Tu et al. ([2013]); settings: 2 µM, pH 7.4; ref Tu et al. ([2013]); cited from earlier work
[6] = Fraction unbound in rat serum by rapid equilibrium dialysis (RED); type: in vitro ADME; settings: 37 °C, read-out: fub, in vivo (fraction unbound)
Protocol: The fub,in vivo was determined by rapid equilibrium dialysis (RED) (Waters et al. [2008]). […] The device was sealed with tape and incubated at 37 °C on a shaker at 250 rpm. After incubation for 5 h when the system reached equilibrium (van Liempd et al. [2011]), 50 µl of post-dialysis samples was collected from the serum and buffer chambers into separate eppendorf tubes. Subsequently, 50 µl of rat serum was added to the buffer samples and 50 µl of PBS was added to the serum samples. To precipitate the protein, 300 µl of ice-cold acetonitrile (90% v/v) was added to both tubes. After putting the mixtures on ice for 30 min, the mixtures were centrifuged at 15,000 g for 30 min at 4 °C, and the supernatants were diluted five times in 90% (v/v) acetonitrile and analyzed by LC–MS as described above. The measurements were performed in triplicate.

DNA adducts = tested on: DNA adducts; design: method as in Xia et al. ([2013]); settings: moderate tumour formation; ref Xia et al. ([2013]); cited from earlier work
male Sprague–Dawley rats = settings: IP single dose 0; 100; 200; 225; 300, 12 h after dosing, BW 100–130 g; ref Copple et al. [2002]; cited from earlier work
[7] = design: method as in Lester et al. ([2019]); settings: ref Lester et al. ([2019]); cited from earlier work
[8] = Reported blood kinetics after iv [14C] monocrotaline (Estep et al. 1991); type: in vivo; settings: rat, iv 60 mg/kg bw, from Estep et al. 1991
Protocol: The reported concentration nmol/g is assumed to be equal to nmol/ml or µM. The reported blood concentration is calculated as the sum of the plasma and RBC concentration.

In the case of `C[C@H]1C(=O)O[C@@H]2CCN3CC=C(COC(=O)[C@](C)(O)[C@]1(C)O)[C@H]23` [Monocrotaline], the “Reported concentration of monocrotaline equivalents, RBCs” value ([1]; 5 min) is listed as 144.00 µM, the “Reported concentration of monocrotaline equivalents, plasma” value ([1]; 5 min) is listed as 113.00 µM and the “Reported concentration of monocrotaline equivalents, RBCs” value ([1]; 15 min) is listed as 113.46 µM. For the same molecule, the “Reported concentration of monocrotaline equivalents, plasma” value ([1]; 15 min) was 81.88 µM, the “Reported concentration of monocrotaline equivalents, RBCs” value ([1]; 30 min) was 100.06 µM and the “Reported concentration of monocrotaline equivalents, plasma” value ([1]; 30 min) was 67.35 µM. The “Reported concentration of monocrotaline equivalents, RBCs” value ([1]; 60 min) was 100.13 µM, the “Reported concentration of monocrotaline equivalents, plasma” value ([1]; 60 min) was 49.84 µM and the “Reported concentration of monocrotaline equivalents, RBCs” value ([1]; 120 min) was 104.89 µM. The “Reported concentration of monocrotaline equivalents, plasma” value ([1]; 120 min) was 29.65 µM, the “Reported concentration of monocrotaline equivalents, RBCs” value ([1]; 180 min) was 99.93 µM and the “Reported concentration of monocrotaline equivalents, plasma” value ([1]; 180 min) was 21.82 µM. For the same molecule, the “Reported concentration of monocrotaline equivalents, RBCs” value ([1]; 240 min) was 99.60 µM, the “Reported concentration of monocrotaline equivalents, plasma” value ([1]; 240 min) was 17.11 µM and the “Reported concentration of monocrotaline equivalents, RBCs” value ([1]; 300 min) was 79.81 µM. The “Reported concentration of monocrotaline equivalents, plasma” value ([1]; 300 min) was 13.07 µM, the “Reported concentration of monocrotaline equivalents, RBCs” value ([1]; 360 min) was 85.50 µM and the “Reported concentration of monocrotaline equivalents, plasma” value ([1]; 360 min) was 12.16 µM. For the same molecule, the “Reported concentration of monocrotaline equivalents, RBCs” value ([1]; 420 min) was 81.00 µM, the “Reported concentration of monocrotaline equivalents, plasma” value ([1]; 420 min) was 11.00 µM and the IARC carcinogenicity category [2] was 2B. The IC50 (primary rat hepatocytes [3]; Rattus norvegicus, Hepatocyte, 24 h exposure, serum-free medium, WST-1, read-out: IC50 cell viability) was 225 µM, the “decrease in cell viability” value (primary rat hepatocytes [3]; highest concentration 600 µM, 24 h) was “over 60%” and the “rate for uptake in the liver of rats, scaled” value (primary rat hepatocytes [4]) was 3.55 µmol/h/kg bw. The “overall rate for uptake into primary rat hepatocytes” value (primary rat hepatocytes [5]) was 14.5 pmol/mg protein/min, the fraction unbound at 5 h, 150 µM [6] was 0.53 ± 0.12 and the “ranking based on the formation of DNA adducts” value (DNA adducts) was “group II”. The “POD: NOAEL, increased plasma ALT” value (male Sprague–Dawley rats) was 100 mg/kg bw, the metabolic stability [7] was “metabolically stable” and the “Reported concentration of monocrotaline equivalents, blood (plasma + RBCs)” value (“Reported concentration … (plasma + RBCs)” below) ([8]; 5 min) was 257.00 µM. The “Reported concentration … (plasma + RBCs)” value ([8]; 15 min) was 195.34 µM, the “Reported concentration … (plasma + RBCs)” value ([8]; 30 min) was 167.41 µM and the “Reported concentration … (plasma + RBCs)” value ([8]; 60 min) was 149.97 µM. For the same molecule, the “Reported concentration … (plasma + RBCs)” value ([8]; 120 min) was 134.54 µM, the “Reported concentration … (plasma + RBCs)” value ([8]; 180 min) was 121.75 µM and the “Reported concentration … (plasma + RBCs)” value ([8]; 240 min) was 116.71 µM. The “Reported concentration … (plasma + RBCs)” value ([8]; 300 min) was 92.88 µM, the “Reported concentration … (plasma + RBCs)” value ([8]; 360 min) was 97.66 µM and the “Reported concentration … (plasma + RBCs)” value ([8]; 420 min) was 92.00 µM.
